Assay results reported in patent publication US9676754B2, “Triazolone compounds and uses thereof” (Inception 2, Inc., priority 2012, dated 2017).

Target: T1, Human PPARα (Homo sapiens, UniProt Q07869)
T1 construct: host or cells: proprietary non-human mammalian cells
T1 sequence (Q07869 1-468): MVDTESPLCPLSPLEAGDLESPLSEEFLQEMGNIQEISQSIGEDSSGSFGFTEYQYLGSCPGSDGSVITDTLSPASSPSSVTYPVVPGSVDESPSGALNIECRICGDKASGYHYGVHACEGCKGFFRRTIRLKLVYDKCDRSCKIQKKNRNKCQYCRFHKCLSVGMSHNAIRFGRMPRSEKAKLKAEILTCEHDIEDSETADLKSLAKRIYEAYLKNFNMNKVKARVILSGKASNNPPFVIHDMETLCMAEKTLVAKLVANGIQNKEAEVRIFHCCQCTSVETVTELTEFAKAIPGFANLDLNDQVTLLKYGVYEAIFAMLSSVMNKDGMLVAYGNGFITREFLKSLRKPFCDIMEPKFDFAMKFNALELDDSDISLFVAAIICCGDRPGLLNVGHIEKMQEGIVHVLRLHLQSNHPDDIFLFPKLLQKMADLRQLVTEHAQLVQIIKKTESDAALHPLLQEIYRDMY
Experiment: Human PPARα Reporter Assay (luciferase)
Format: cell-based
Details: antagonist activity, luciferase reporter cells, overnight incubation; read-out: Human PPARα Reporter Assay-Luciferase IC50
Description: Human PPARα Reporter Assay
The screening of test compounds for agonist or antagonist activities against human PPARα receptors was performed using a commercial kit, Human PPARα Reporter Assay System (Indigo Biosciences, Cat. #IB00111).
This nuclear receptor assay system utilizes proprietary non-human mammalian cells engineered to provide constitutive, high-level expression of Human PPARα. Because these cells incorporate a PPARα-responsive luciferase reporter gene, quantifying expressed luciferase activity provides a sensitive surrogate measure of PPARα activity in the treated cells. The primary application of this reporter assay system is in the screening of test samples to quantify any functional activity, either agonist or antagonist, that they may exert against human PPARα. […] Briefly, the reporter cells are dispensed into wells of the assay plate and then immediately dosed with test compounds. Following an overnight incubation, the treatment media are discarded and Luciferase Detection Reagent (LDR) is added. The intensity of light emission from the ensuing luciferase reaction provides a sensitive measure that is directly proportional to the relative level of PPARα activation in the reporter cells.

Row | IC50 | SMILES
1 | 110 nM | CCn1c(CCCc2cccc(-c3ccc(C(=O)O)cc3)c2)nn(Cc2ccc(C(C)(C)C)cc2)c1=O [Example 4, 3′-(3-(1-(4-(tert-Butyl)benzyl)-4-ethyl-5-oxo-4,5-dihydro-1H-1,2,4-triazol-3-yl)propyl)-[1,1′-biphenyl]-4-carboxylic acid]
2 | 1330 nM | CCn1c(CCCc2cccc(-c3cccc(C(=O)O)c3)c2)nn(Cc2ccc(C(C)(C)C)cc2)c1=O [Example 3, 3′-(3-(1-(4-(tert-Butyl)benzyl)-4-ethyl-5-oxo-4,5-dihydro-1H-1,2,4-triazol-3-yl)propyl)-[1,1′-biphenyl]-3-carboxylic acid]
3 | 659 nM | CCn1c(CCC(F)(F)c2cccc(-c3ccc(NS(=O)(=O)c4ccccc4)cn3)c2)nn(Cc2ccc(C(C)(C)C)cc2)c1=O [Example 23, N-(6-(3-(3-(1-(4-(tert-Butyl)benzyl)-4-ethyl-5-oxo-4,5-dihydro-1H-1,2,4-triazol-3-yl)-1,1-difluoropropyl)phenyl)pyridin-3-yl)benzenesulfonamide]
4 | 64 nM | CCOc1ccc(-c2cccc(C(F)(F)CCc3nn(Cc4ccc(C(C)(C)C)cc4)c(=O)n3CC)c2)cc1CC(=O)O [Example 22, 2-(3′-(3-(1-(4-(tert-Butyl)benzyl)-4-ethyl-5-oxo-4,5-dihydro-1H-1,2,4-triazol-3-yl)-1,1-difluoropropyl)-4-ethoxy-[1,1′-biphenyl]-3-yl)acetic acid]
